According to US5091539A, “Azolyl cycloalkanol derivatives and agricultural fungicides” (Shionogi & Co., Ltd., priority 1984, dated 1992):
Values after ≈ are worked out from the molar mass of the structure shown.

Legend:
[1] = tested on: Botrytis cinerea; test: Control test of Botrytis rot (gray mold) of cucumber; assay type: in vivo
[2] = tested on: Sclerotinia sclerotiorum; test: Control test to Sclerotinia rot of cucumber; assay type: in vivo
From the text: (1) This test was practised in the same manner as in the above test, control test of Botrytis rot (gray mold) of cucumber, except for using the mycelium of Sclerotinia sclerotiorum as inoculm. The same as in test 2.

[3] = tested on: Sphaerotheca fuliginea; test: Control test to powdery mildew of cucumber (foliar and soil treatment); assay type: in vivo; details: index 0-10
[4] = tested on: Puccinia coronata; test: Control test of crown rust of oat; assay type: in vivo
Protocol: (1) Young oats (Cultivar: Pc38) grown in pots in a greenhouse were (i) sprayed with 10 ml each of solution of the test compounds at a prescribed concentration and after air-drying, they were inoculated with 15 mg of uredospores of Puccinia coronata per 20 pots (protective spraying) or (ii) sprayed with the test solution 3 days after inoculation of uredospores. After each plant was kept at 20°-25° C. in a greenhouse for 2 weeks, number of uredia was counted on the first leaf.

[5] = tested on: Sphaerotheca fuliginea; test: Control test to powdery mildew of cucumber by vapor (filter paper disks); assay type: in vivo
Protocol: (1) The first leaves of young cucumber (Cultivar: Matsukaze) planted in pot of 9 cm in diameter were inoculated with spore suspension of Sphaerotheca fuliginea. After the plants were kept in a greenhouse for 2 days, thin cover plates, 15 mm in diameter, were put on the first leaves. Filter paper disks soaked with 80 μl of test solution at a concentration of 31.3, 7.8, 2.0 or 0.5 ppm were put on the plates for 3 days. Disease degrees were observed 14 days after the inoculation.
It is evaluated as + when an inhibition zone was observed around the plate, as ± when the inhibition zone has nearly the same diameter (8 mm) as that of plate or as - when there is no inhibition zone.
(§1) (1) Test methods and evaluation are the same as those in Tests 2, 4 and 6.

[6] = tested on: Alternaria kikuchiana; test: Anti-fungal activity in vitro; assay type: cell-based; details: 48 h, GY medium, 28° C., 2 days, spore suspension
Protocol: (§2) (1) Each test compound was diluted by two-fold dilution with GY medium (2% glucose and 0.4% yeast extract) containing 0.01% Tween 80 (trademark). Every diluted solution was inoculated with spore suspension (10^5-5 spores/ml) of Alternaria kikuchiana or a hyphae disk with agar (4 mm in diameter) of other fungi and incubated at 28° C. for 2 days.

[7] = tested on: Cladosporium herbarum; test: Anti-fungal activity in vitro; assay type: cell-based; details: 48 h, GY medium, 28° C., 2 days
Protocol: as §2

[8] = tested on: Cochiobolus sativus; test: Anti-fungal activity in vitro; assay type: cell-based; details: 48 h; GY medium, 28° C., 2 days
Protocol: as §2

[9] = tested on: Corticium rolfsii; test: Anti-fungal activity in vitro; assay type: cell-based; details: Agroathelia rolfsii, 48 h; GY medium, 28° C., 2 days
Protocol: as §2

[10] = tested on: Diaporthe citri; test: Anti-fungal activity in vitro; assay type: cell-based; details: 48 h, GY medium, 28° C., 2 days
Protocol: as §2

[11] = tested on: Monilinia fructicola; test: Anti-fungal activity in vitro; assay type: cell-based; details: 48 h, GY medium, 28° C., 2 days
Protocol: as §2

[12] = tested on: Pyrenophora graminea; test: Anti-fungal activity in vitro; assay type: cell-based; details: 48 h, GY medium, 28° C., 2 days
Protocol: as §2

[13] = tested on: Ustilago nuda; test: Anti-fungal activity in vitro; assay type: cell-based; details: 48 h, GY medium, 28° C., 2 days
Protocol: as §2

[14] = tested on: powdery mildew of cucumber and Borytis rot (gray mold) of cucumber; test: Comparative test of cis- and trans-isomers; assay type: in vivo; details: cis isomer vs trans isomer, about
From the text: Each cis- and trans-isomers of 1-(4-chlorophenyl)-2-(1,2,4-triazol-1-yl)cyclohexanol (Compound 22 and the trans-isomer)) and 1-(4-fluorophenyl)-2-(1,2,4-triazol-1-yl)cyclohexanol (Compound 28 and the trans-isomer) are subjected to control test to powdery mildew of cucumber and to Borytis rot (gray mold) of cucumber.
as §1

[15] = tested on: Rhizoctonia solani; test: Control test to damping-off of cucumber (Rhizoctonia solani); assay type: in vivo; details: 31.3 ppm, soil drench, 14 days
Protocol: (1) The fungus causing damping-off of cucumber seedlings, Rhizoctonia solani or Fusarium oxysporum was cultured on a wheat bran medium at 28° C. for 5 days, which was mixed with sterilized soil and cultured for 2 days to prepare the inoculum. Sterilized soil (150 g) was put into a pot of 9 cm in diameter. The surface of the spot was covered with the above inoculum. […] Twenty cucumber seeds (Cultivar: Matsukaze) were sown 2 days after. The pots were kept at 30°±2° C. for 14 days. The infection was observed 14 days after and disease degree and percent disease degree were obtained by setting an evaluation index for each disease sympton.
(2) Evaluation [formula] wherein a: number of seeds without germination b: number of seedlings showing damping-off c: number of wilted seedlings d: number of seedlings being a little brownish in cotyledons or at the bottom of the stem e: number of uninfected seedlings [formula] wherein a: number of seeds without germination or seedlings with damping-off b: number of wilted seedlings c: number of seedlings being a little brownish in cotyledons or at the bottom of the stem d: number of uninfected seedlings [formula]

O[C@@]1(c2ccc(Cl)cc2)CCCC[C@H]1n1cncn1 (relative stereo) [Compound 22, cis-1-(4-chlorophenyl)-2-(1,2,4-triazol-1-yl)cyclohexanol]
Percent Disease Control, Curative Spraying ([1]; Table 2, 31.3 ppm): 46%
Percent Disease Control, Protective Spraying ([1]; Table 2, 31.3 ppm): 100%
Percent Disease Control, Curative Spraying ([1]; Table 2, 125 ppm): 89%
Percent Disease Control, Protective Spraying ([1]; Table 2, 125 ppm): 100%
Gray Mold, Percent Disease Control, Curative Spraying ([1]; Table 9, 7.8 ppm): 20%
Gray Mold, Percent Disease Control, Protective Spraying ([1]; Table 9, 7.8 ppm): 35%
Gray Mold, Percent Disease Control, Curative Spraying ([1]; Table 9, 31.3 ppm): 88%
Gray Mold, Percent Disease Control, Protective Spraying ([1]; Table 9, 31.3 ppm): 62%
Gray Mold, Percent Disease Control, Curative Spraying ([1]; Table 9, 125 ppm): 82%
Gray Mold, Percent Disease Control, Protective Spraying ([1]; Table 9, 125 ppm): 78%
Percent Disease Control, Curative Spraying ([2]; 31.3 ppm): 93%
Percent Disease Control, Protective Spraying ([2]; 31.3 ppm): 67%
Percent Disease Control, Curative Spraying ([2]; 125 ppm): 95%
Percent Disease Control, Protective Spraying ([2]; 125 ppm): 100%
Powdery mildew, Foliar Treatment, Curative Effect ([3]; Table 9, 0.03 ppm): 9
Powdery mildew, Foliar Treatment, Protective Effect ([3]; Table 9, 0.03 ppm): 0
Powdery mildew, Foliar Treatment, Curative Effect ([3]; Table 9, 0.12 ppm): 10
Powdery mildew, Foliar Treatment, Protective Effect ([3]; Table 9, 0.12 ppm): 9
Powdery mildew, Foliar Treatment, Curative Effect ([3]; Table 9, 0.5 ppm): 10
Powdery mildew, Foliar Treatment, Protective Effect ([3]; Table 9, 0.5 ppm): 10
Powdery mildew, Soil Treatment, Protective Effect ([3]; Table 9, 0.5 ppm): 0
Powdery mildew, Foliar Treatment, Curative Effect ([3]; Table 9, 2.0 ppm): 10
Powdery mildew, Foliar Treatment, Protective Effect ([3]; Table 9, 2.0 ppm): 10
Powdery mildew, Soil Treatment, Protective Effect ([3]; Table 9, 2.0 ppm): 10
Powdery mildew, Soil Treatment, Protective Effect ([3]; Table 9, 7.8 ppm): 10
Powdery mildew, Soil Treatment, Protective Effect ([3]; Table 9, 31.3 ppm): 10
Foliar Treatment, Curative Effect ([3]; second Table 4, 0.5 ppm): 10
Foliar Treatment, Protective Effect ([3]; second Table 4, 0.5 ppm): 5 (Disease sign is observed on the leaf in about 30%.)
Soil Treatment, Protective Effect ([3]; second Table 4, 0.5 ppm): 0
Foliar Treatment, Curative Effect ([3]; second Table 4, 2.0 ppm): 10
Foliar Treatment, Protective Effect ([3]; second Table 4, 2.0 ppm): 10
Soil Treatment, Protective Effect ([3]; second Table 4, 2.0 ppm): 5 (Disease sign is observed on the leaf in about 30%.)
Foliar Treatment, Curative Effect ([3]; second Table 4, 7.8 ppm): 10
Foliar Treatment, Protective Effect ([3]; second Table 4, 7.8 ppm): 10
Soil Treatment, Protective Effect ([3]; second Table 4, 7.8 ppm): 10
Foliar Treatment, Curative Effect ([3]; second Table 4, 31.3 ppm): 10
Foliar Treatment, Protective Effect ([3]; second Table 4, 31.3 ppm): 10
Soil Treatment, Protective Effect ([3]; second Table 4, 31.3 ppm): 10
Percent Disease Control, Curative Spraying ([4]; 12.5 ppm): 64%
Percent Disease Control, Protective Spraying ([4]; 12.5 ppm): 100%
Percent Disease Control, Curative Spraying ([4]; 25 ppm): 88%
Percent Disease Control, Protective Spraying ([4]; 25 ppm): 100%
Percent Disease Control, Curative Spraying ([4]; 50 ppm): 100%
Percent Disease Control, Protective Spraying ([4]; 50 ppm): 100%
Protective Effect by Vapor ([5]; Table 6, 0.5 ppm): -
Protective Effect by Vapor ([5]; Table 6, 2.0 ppm): -
Protective Effect by Vapor ([5]; Table 6, 7.8 ppm): +
Protective Effect by Vapor ([5]; Table 6, 31.3 ppm): +
Powdery mildew, Vapor Effect ([5]; Table 9, 2.0 ppm): -
Powdery mildew, Vapor Effect ([5]; Table 9, 7.8 ppm): ±
Powdery mildew, Vapor Effect ([5]; Table 9, 31.3 ppm): +
MIC [6]: 50 µg/mL (≈ 180 µM)
MIC [7]: 6.25 µg/mL (≈ 22.5 µM)
MIC [8]: 6.25 µg/mL (≈ 22.5 µM)
MIC [9]: > 50 µg/mL
MIC [10]: 12.5 µg/mL (≈ 45 µM)
MIC [11]: 0.78 µg/mL (≈ 2.81 µM)
MIC [12]: 12.5 µg/mL (≈ 45 µM)
MIC [13]: 12.5 µg/mL (≈ 45 µM)
times more effective than the corresponding trans isomer [14]: 4-16 times

O[C@@]1(c2ccc(F)cc2)CCCC[C@H]1n1cncn1 (relative stereo) [Compound 28, 1-(4-fluorophenyl)-2-(1,2,4-triazol-1-yl)cyclohexanol]
Disease Degree [15]: 8
Percent Disease Control [15]: 92%
Percent Disease Control, Curative Spraying ([1]; Table 2, 31.3 ppm): 48%
Percent Disease Control, Protective Spraying ([1]; Table 2, 31.3 ppm): 40%
Percent Disease Control, Curative Spraying ([1]; Table 2, 125 ppm): 79%
Percent Disease Control, Protective Spraying ([1]; Table 2, 125 ppm): 100%
Gray Mold, Percent Disease Control, Curative Spraying ([1]; Table 9, 7.8 ppm): 30%
Gray Mold, Percent Disease Control, Protective Spraying ([1]; Table 9, 7.8 ppm): 17%
Gray Mold, Percent Disease Control, Curative Spraying ([1]; Table 9, 31.3 ppm): 92%
Gray Mold, Percent Disease Control, Protective Spraying ([1]; Table 9, 31.3 ppm): 70%
Gray Mold, Percent Disease Control, Curative Spraying ([1]; Table 9, 125 ppm): 98%
Gray Mold, Percent Disease Control, Protective Spraying ([1]; Table 9, 125 ppm): 80%
Percent Disease Control, Curative Spraying ([2]; 31.3 ppm): 77%
Percent Disease Control, Protective Spraying ([2]; 31.3 ppm): 56%
Percent Disease Control, Curative Spraying ([2]; 125 ppm): 97%
Percent Disease Control, Protective Spraying ([2]; 125 ppm): 80%
Powdery mildew, Foliar Treatment, Curative Effect ([3]; Table 9, 0.03 ppm): 0
Powdery mildew, Foliar Treatment, Protective Effect ([3]; Table 9, 0.03 ppm): 0
Powdery mildew, Foliar Treatment, Curative Effect ([3]; Table 9, 0.12 ppm): 7 (Disease sign is observed on the leaf in about 20%.)
Powdery mildew, Foliar Treatment, Protective Effect ([3]; Table 9, 0.12 ppm): 0
Powdery mildew, Foliar Treatment, Curative Effect ([3]; Table 9, 0.5 ppm): 10
Powdery mildew, Foliar Treatment, Protective Effect ([3]; Table 9, 0.5 ppm): 5 (Disease sign is observed on the leaf in about 30%.)
Powdery mildew, Soil Treatment, Protective Effect ([3]; Table 9, 0.5 ppm): 0
Powdery mildew, Foliar Treatment, Curative Effect ([3]; Table 9, 2.0 ppm): 10
Powdery mildew, Foliar Treatment, Protective Effect ([3]; Table 9, 2.0 ppm): 10
Powdery mildew, Soil Treatment, Protective Effect ([3]; Table 9, 2.0 ppm): 9
Powdery mildew, Soil Treatment, Protective Effect ([3]; Table 9, 7.8 ppm): 10
Powdery mildew, Soil Treatment, Protective Effect ([3]; Table 9, 31.3 ppm): 10
Foliar Treatment, Curative Effect ([3]; second Table 4, 0.5 ppm): 5 (Disease sign is observed on the leaf in about 30%.)
Foliar Treatment, Protective Effect ([3]; second Table 4, 0.5 ppm): 0
Soil Treatment, Protective Effect ([3]; second Table 4, 0.5 ppm): 0
Foliar Treatment, Curative Effect ([3]; second Table 4, 2.0 ppm): 9
Foliar Treatment, Protective Effect ([3]; second Table 4, 2.0 ppm): 5 (Disease sign is observed on the leaf in about 30%.)
Soil Treatment, Protective Effect ([3]; second Table 4, 2.0 ppm): 5 (Disease sign is observed on the leaf in about 30%.)
Foliar Treatment, Curative Effect ([3]; second Table 4, 7.8 ppm): 10
Foliar Treatment, Protective Effect ([3]; second Table 4, 7.8 ppm): 10
Soil Treatment, Protective Effect ([3]; second Table 4, 7.8 ppm): 10
Foliar Treatment, Curative Effect ([3]; second Table 4, 31.3 ppm): 10
Foliar Treatment, Protective Effect ([3]; second Table 4, 31.3 ppm): 10
Soil Treatment, Protective Effect ([3]; second Table 4, 31.3 ppm): 10
Powdery mildew, Vapor Effect ([5]; Table 9, 2.0 ppm): -
Powdery mildew, Vapor Effect ([5]; Table 9, 7.8 ppm): ±
Powdery mildew, Vapor Effect ([5]; Table 9, 31.3 ppm): +
times more effective than the corresponding trans isomer [14]: 4-16 times
